# Columns and labels:
# [1] = T-DM1; untargeted Dox in patients; cited from earlier work
# [2] = Off-target toxicity in treated mice (weight, heart, liver)
# Description: Relative cell survival (as % of untreated cells) on day 3 of treatment. (+Her), pre-incubation of MDA-MB-435 cells with receptor-blocking ligand (recombinant heregulin) before receiving HerDox. N=3. […] Tissues were harvested from independently injected mice euthanized at indicated time points after injection and fluorescence intensity/tissue acquired using a multimode imager. […] Bar, about 4 μm. […] Day 0=3 days before tail vein injections (mice received daily injections for 7 days). […] Day 0=3 days before tail vein injections (mice received daily injections for 7 days). […] Micrographs (20× magnification) in (E) also show representative H&E stained specimens of myocardia and immunofluorescent specimens of livers from treated mice. Green fluorescence in nuclei indicates apoptosis (positive TUNEL stain).
# MDA-MB-435 (HER2+) = assay: Targeted toxicity, cell survival by MTT assay; assay type: cell-based, human; details: Dox 0.5 μM; HerPBK10 0.1 μM; day 3
# Description: (§1) FIG. 7 illustrates targeted toxicity. […] Cell titer was determined by metabolic (i.e. MTT) assay. FIG. 7 upper panel illustrates the effect of HerDox on MDA-MB-231 (HER2−) and MDA-MB-435 (HER2+) cell survival. Relative surviving cell numbers are represented as a % of corresponding untreated cells. […] Relative survival (as % of untreated cells) is shown for Day 3 of treatment.
# FIG. 8 illustrates receptor specificity. MDA-MB-435 (HER2+) cells were incubated with free ligand (eHRG) at 10× molar excess of HerDox for one hour at 4° C. Media was aspirated to remove free eHRG and fresh media containing HerDox (0.5 μM) was added to cells. Cell survival was measured by MTT assay and represented as a % of relative untreated cell numbers.
# (§2) N=3. […] Bar, about 4 μm. […] (E) compares HerDox and Dox on off-target tissue. […] Green fluorescence in nuclei indicates apoptosis (positive TUNEL stain).
# (§3) By three days, HerDox reduced HER2+ cell numbers by over 75% whereas HER2− cell survival was unaffected (FIG. 7). […] These findings emphasize the importance of targeting by showing that the untargeted drug affects nontarget (i.e. HER2−) cells. […] To test receptor targeting, the inventors used free heregulin ligand (Her or eHRG) as a competitive inhibitor. […] As a final in vitro challenge, the inventors tested whether HerDox induces toxicity specifically to HER2+ cells in a mixed culture of HER2+ and HER2− breast cancer cells. To do this, the inventors produced a HER2− cell line tagged with green fluorescent protein (GFP) for cell identification in the mixed culture (FIG. 9-A). […] Altogether, these findings indicate that HerDox has the capacity to preferentially target toxicity to HER2+ cells. […] In serum-containing media, no such loss from HerDox is detectable. […] Co-migration of HerPBK10 bands further verified that the conjugates remained intact in the cell media.
# JIMT-1 tumors = assay: Trastuzumab-resistant tumor growth in vivo; design: species or system mouse; details: 0.004 mg Dox/kg/injection, twice-weekly IV
# Description: (§4) Tumor volumes were measured by calipers. Day 0 corresponds to first day of treatment. N=10 tumors per treatment.
# as §4
# (§5) The efficacy of HerDox was also examined on a cell line with pre-existing resistance.
# (§6) The contribution of HER3 to targeted toxicity was evaluated by assessing whether pre-adsorbing HerDox with a peptide comprising the ligand-binding domain of HER3 blocked cytotoxicity.
# JIMT-1 cell line = assay: Tumor cell killing in culture, pre-existing resistance; assay type: cell-based, human; details: broad concentration range
# Description: N=3. *, p<0.05 compared to parental. […] N=3. […] Treatments were compared to mock (saline)-treatment. […] N=3. *, p<0.05 compared to parental. […] N=3.
# as §5, §6
# [3] = test system: HER2+ tumors (MDA-MB-435); assay: In vivo tumor toxicity (tumor growth); design: species or system mouse
# MDA-MB-231 (HER2−) = assay: Targeted toxicity, cell survival by MTT assay; assay type: cell-based, human; details: 0.5 μM with respect to Dox; HerPBK10 0.1 μM; day 3
# Description: as §1, §2, §3
# HER2+ tumors = assay: HerDox and Dox biodistribution (Dox fluorescence imaging); details: tissues harvested ~3 h after injection
# Description: FIG. 11 (A) depicts imaging of live mice after IV delivery of HerDox. Tumors are indicated by arrows.
# MDA-MB-435 cells = assay: Intracellular translocation of HerDox and Dox (microscopy); assay type: cell-based, human
# Description: Live (unfixed) cells were imaged by brightfield and fluorescence microscopy.
# Live (unfixed) cells were imaged by DIC and confocal fluorescence microscopy.
# FIG. 15 illustrates HerDox trafficking in breast cancer cells. Cells incubated with HerDox at 37° C. were fixed at the indicated time points and processed for immunofluorescence using an antibody against HerPBK10. Images were captured using confocal microscopy under fluorescence and brightfield. n, nucleus; Bar, ˜8 microns.
# human HER2− tumor cells = assay: HerMn toxicity, crystal violet survival; assay type: cell-based; details: 24 hours
# Description: (§7) Each cell line received the indicated concentration of HerMn or S2Mn and was assessed for survival 24 hours later via crystal violet (CV) stain. N=3 per conc, from 3 separate experiments.
# human HER2+ tumor cells = assay: HerMn toxicity, crystal violet survival; assay type: cell-based; details: 24 hours
# Description: as §7
# TSPO = TSPO (Homo sapiens, UniProt P30536); assay: S2Ga binding to recombinant TSPO (ultrafiltration, spectra); details: 1 μM
# Description: (A) illustrates that S2Ga interacts with TSPO. […] Retentates were evaluated for the presence of protein-bound corrole by measuring the absorbance and fluorescence spectra. Where indicated, PK11195 was used as a competitive inhibitor for the porphyrin binding site on TSPO. (B) further illustrates that S2Ga interacts with TSPO. […] Retentates were evaluated for the presence of protein-bound corrole by measuring the absorbance and fluorescence spectra. Where indicated, PK11195 was used as a competitive inhibitor for the porphyrin binding site on TSPO. […] MDA-MB-435 cells were transfected with a plasmid expressing exogenous TSPO 24 hours before cells were treated with HerGa and examined for HerGa-mediated mitochondrial disruption, evidenced by reduced red fluorescent dye accumulation in mitochondria and accumulated green fluorescence in the cytoplasm.
# TSPO translocates porphyrins and other metabolites into mitochondria for processing as well as interacts with components of the mitochondrial permeability transition pore complex, and is critical for cellular homeostasis, as knock-outs of TSPO are embryonic lethal in mice.
# SOD1 = test system: SOD1
# Description: An in vitro assay measuring superoxide production from XOD−/+SOD.
# Chain of TSPO (P30536 whole entry): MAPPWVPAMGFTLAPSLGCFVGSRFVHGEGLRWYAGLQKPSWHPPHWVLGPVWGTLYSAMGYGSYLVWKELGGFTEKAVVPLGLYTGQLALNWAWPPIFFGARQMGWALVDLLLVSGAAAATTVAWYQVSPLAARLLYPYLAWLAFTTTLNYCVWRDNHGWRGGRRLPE
compound,measurement,setting,value
T-DM1,therapeutic dose required,[1],about 3.6 mg/kg
"COc1cccc2c1C(=O)c1c(O)c3c(c(O)c1C2=O)C[C@@](O)(C(=O)CO)C[C@@H]3O[C@H]1C[C@H](N)[C@H](O)[C@H](C)O1 [Dox, doxorubicin, reference compound]",heart gross appearance,[2]; 25 days following injections,slightly enlarged and dilated
same,myocardium morphology (histochemistry),[2]; 25 days following injections,"focal degeneration, myofibrillar loss, increased cytosoplasmic vacuolization, and nuclear condensation or dissolution"
same,cardiac function (echocardiograms),"[2]; mouse, in vivo","modest to marked reductions in stroke volume, cardiac output, and left ventricular internal dimension and volume"
same,liver and heart toxicity,[2]; systemic delivery in vivo,causing liver tissue and myocardial damage
same,effect on HER2+ cell survival,MDA-MB-435 (HER2+),reduced both HER2+ and HER2− cells by the same order of magnitude
same,effect on JIMT-1 tumor growth,JIMT-1 tumors,only slight
same,response of JIMT-1 cells,JIMT-1 cell line,only partially responsive
same,effect on tumor growth,"[3]; 0.004 mg/kg with respect to Dox, daily tail vein injections for 7 days",slows tumor growth
same,dose eliciting tumor growth ablation / tumor cell death,"[3]; mice, dose of Dox",more than 0.04 mg/kg
same,effect on HER2− cell survival,MDA-MB-231 (HER2−),reduced both HER2+ and HER2− cells by the same order of magnitude
same,fluorescence in kidneys,HER2+ tumors,detectable fluorescence
same,fluorescence in liver,HER2+ tumors,detectable fluorescence
same,"fluorescence in other tissues (heart, spleen, lungs, skeletal muscle)",HER2+ tumors,Lower levels of fluorescence were also detectable in the lungs and skeletal muscle
same,fluorescence in tumors,HER2+ tumors,detectable fluorescence
same,intracellular location of Dox fluorescence,"MDA-MB-435 cells; 0 min of uptake, 0.5 μM",already found inside the cell at the nuclear periphery
same,intranuclear pattern of Dox in live cells,"MDA-MB-435 cells; confocal, live cells",accumulates in the cell nucleus
sulfonated manganese(III) corrole [S2Mn],toxicity to HER2− tumor cells,human HER2− tumor cells,no effect on cell survival
same,toxicity to HER2+ tumor cells,human HER2+ tumor cells,no effect on cell survival
sulfonated gallium(III) corrole [S2Ga],binding to TSPO with PK11195,TSPO,competitively inhibited by PK11195
same,binding to TSPO,"TSPO; ~20 min, room temperature",directly binds
sulfonated non-metallated free-base corrole [S2FB],inhibition of SOD1,SOD1,inhibit SOD activity
same,reduction of SOD activity,SOD1; 1 μM,about one-third

# Source: patent US9850293B2, “Targeting trastuzumab-resistant HER2+ breast cancer with a HER3-targeting nanoparticle” (priority 2014, dated 2017)
